Results reported in patent publication US20230233546A1, “METHODS OF TREATING CANCER” (Kymera Therapeutics, Inc., priority 2021, published 2023).

Tests used:
[1] = test system: Acute lymphoblastic leukemia cells (RS4;11); assay: Cell Titer Glo cell viability / growth inhibition in RS4;11; format: cell-based; details: for IC50: Homo sapiens, RS4-11, read-out: all cell killing CTG IC50 in RS4;11
Protocol: (§1) In vitro cell viability in all cells lines, at optimized growth conditions, was assessed using Cell Titer Glo (Promega) assay performed over 24 h-96 h compound treatments. Compound treatments were carried out using a 11-point dose response, 3-fold serial dilutions stating at a maximum concentration of 1 uM. IC50, IC90 values were calculated by curve fitting using appropriate Nonlinear Regression fit in GraphPad Prism. Cell cycle arrest and/or apoptosis in response to single agent or combination treatment was assessed using flow cytometry analysis on cells treated for 24 h.
Acute lymphoblastic leukemia cells (RS4;11) were treated for 24 h with Compound A or small molecule inhibitor DS-3032 in a 3-fold serial dilution dose-response at maximum concentration of 1 mM. Growth inhibition was quantified using Cell titer glo (Promega) assay at 24 h continuous treatment.

[2] = target: T1, C-terminally HiBiT-tagged MDM2 (Homo sapiens, UniProt Q00987); assay: MDM2 degradation, HiBiT signal (Nano-Glo HiBiT lytic detection) in 293T cells; format: cell-based
T1 construct: expressed in transfected cells
T1 sequence (Q00987 whole entry): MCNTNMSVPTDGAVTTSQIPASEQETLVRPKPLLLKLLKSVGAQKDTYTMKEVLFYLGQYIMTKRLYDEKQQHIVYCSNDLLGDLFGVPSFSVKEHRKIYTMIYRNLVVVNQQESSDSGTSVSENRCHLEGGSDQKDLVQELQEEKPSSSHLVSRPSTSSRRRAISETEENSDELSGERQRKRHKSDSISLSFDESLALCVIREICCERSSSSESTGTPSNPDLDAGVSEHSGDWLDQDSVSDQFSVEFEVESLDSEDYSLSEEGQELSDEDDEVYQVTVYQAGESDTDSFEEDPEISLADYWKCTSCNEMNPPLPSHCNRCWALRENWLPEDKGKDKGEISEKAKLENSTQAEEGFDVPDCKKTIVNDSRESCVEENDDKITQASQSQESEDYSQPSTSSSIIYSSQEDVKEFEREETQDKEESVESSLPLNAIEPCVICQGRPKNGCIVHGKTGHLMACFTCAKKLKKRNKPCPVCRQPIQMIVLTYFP
Protocol: 293T cells stably expressing C-terminally HiBiT-tagged MDM2 were treated for 4 h with Compound A or small molecule inhibitor DS-3032 in a 3-fold serial dilution dose-response at maximum concentration of 1 mM. Degradation potency was measured as reduction in HiBiT signal, quantified using Nano-Glo® HiBiT lytic detection system (Promega).

p53 = p53 stabilization, p53 MSD assay in RS4;11 cells; format: cell-based; details: RS4;11, 2 h treatment
Protocol: Acute lymphoblastic leukemia cells (RS4;11) were treated for 2 h (4 h, 8 h and 24 h—data not shown) with Compound A or small molecule inhibitor DS-3032 in a 3-fold serial dilution dose-response at maximum concentration of 1 mM. p53 levels were quantified using p53 MSD assay (Total p53 Whole Cell Lysate Kit, MSD, K150DBD-2).

[3] = test system: Acute lymphoblastic leukemia cells (RS4;11); assay: Washout apoptosis assay, Caspase Glo 3/7 in RS4;11; format: cell-based; details: RS4;11, 4 h exposure followed by washout, measured at 24 or 48 h post treatment
Protocol: For washout assay, cells were treated for 4-24 h at serial dilutions indicated above. At the end of treatment times (4 h, 8 h, 16 h and 24 h) cells were washed twice with complete media, plated in 384-well plates and incubated for 24-72 h. Cells were assessed for viability using Cell Titer Glo (Promega) assay and apoptosis using Caspase Glo 3/7 (Promega) assay at 24 h, 48 h and 72 h post the start of treatment.
Acute lymphoblastic leukemia cells (RS4;11) were treated for 4 h (8 h, 16 h, 24 h—data not shown) with Compound A or small molecule inhibitor DS-3032 at indicated concentrations. Apoptotic activity was quantified as increase in Caspase activity measured using Caspase Glo® 3/7 assay system (Promega).

RS4;11 tumor = assay: RS4;11 subcutaneous mouse xenograft, tumor volume; format: in vivo; details: single intravenous bolus, 1, 3, and 10 mg/kg; doses as low as 1 mg/kg
Protocol: Female mice, 5-8 wks old mice NOD/SCID mice from SPF (Beijing) experimental Animal Science Technology Co., ltd. Animals were received, housed and observed for seven days prior to study initiation. Each mouse were inoculated subcutaneously with RS4;11 tumor cells (1×107) in 0.1 ml of RPMI1640 with 10% FBS for tumor development. Groups and treatments were started when the mean tumor volume reached about 100 mm3 for study. Based on the tumor volume, mice were randomly assigned to respective groups using a computer-generated randomization procedure. Compound A was formulated in 20% HP-β-CD at concentrations up to 0.1 mg/mL and administered intravenously to tumor bearing animals. Tumor size was measured twice to three times weekly in three dimensions using a caliper. The measurement of tumor size were conducted twice weekly with a caliper and recorded. The tumor volume (mm^3) was estimated using the formula: TV=a×b2/2, where “a” and “b” are long and short diameters of a tumor, respectively.
(§2) Compound A was administered as a single intravenous bolus in RS411 tumor bearing mice at doses of 1, 3, and 10 mg/kg. […] Change in the levels of protein markers in degrader treated xenografts was quantified relative vehicle treated xenografts using western blot assay. Clinical equivalent doses of SMIs had no significant in vivo impact in these xenograft models.

p53, p21, and PUMA = assay: Protein markers in RS4;11 tumor xenografts, western blot; format: in vivo, mouse; details: 1 mg/kg
Protocol: At various times tumor bearing animals were sacrificed and plasma and tumors collected for pharmacokinetic and pharmacodynamic determinations.
as §2

disseminated AML model = assay: Disseminated AML xenograft model, survival; format: in vivo, mouse; details: weekly administration, compared to vehicle treated animals
Protocol: Female mice, 5-8 wks old mice NOD/SCID mice from SPF (Beijing) experimental Animal Science Technology Co., ltd. Animals were received, housed and observed for seven days prior to study initiation. Each mouse will be with tumor cells in 0.1 ml PBS via tail-vein injection. Groups and treatments were started 4 days post-inoculation. Based on the body weight, mice were randomly assigned to respective groups using a computer-generated randomization procedure. Compound A was formulated in 20% HP-β-CD at concentrations up to 0.1 mg/mL and administered intravenously to tumor bearing animals.
In this model, Compound A exposures correlated with induction of apoptotic p53 target genes and tumor growth inhibition.

[4] = test system: CTG-2227 AML patient-derived xenograft (PDX); assay: AML patient-derived xenograft model CTG-2227; format: in vivo, mouse; details: 1 mg/kg, Q3W, IV
Protocol: (§3) AML patient cells from leukapheresis were intravenously (IV) injected and established in immunocompromised host strain mice. Surrogate animals were used to determine the level of engraftment targeting a threshold of ˜20% huCD45+ cells in BM. Mice were randomized on study and treatment was initiated. Vehicle and Compound A, 1 mg/kg were administered IV, every three weeks for six weeks (total of two doses of Compound A). At study end, whole blood, bone marrow and spleen were assessed by flow cytometry.

CTG-2240 AML PDX = assay: AML patient-derived xenograft model CTG-2240; format: in vivo, mouse; details: 1 mg/kg, Q3W, IV
Protocol: as §3

CTG-2700 AML PDX = assay: AML patient-derived xenograft model CTG-2700; format: in vivo, mouse; details: 1 mg/kg, Q3W, IV
Protocol: as §3

[5] = test system: hCD45+ cells in bone marrow and AML blasts; assay: AML PDX models, flow cytometry at study end; format: in vivo, mouse; details: 1 mg/kg, Q3W
Protocol: as §3

MOLM-13 cell line = assay: Combination treatment in MOLM-13 cell line, apoptosis and cell killing; format: cell-based; details: combination with venetoclax and midostaurin
Protocol: as §1

MOLM-13 xenograft = MOLM-13 xenograft model, combination with standard of care; format: in vivo
[6] = test system: multiple heme indications (AML, T cell lymphomas, mantle cell lymphoma, DLBCL); assay: In vitro activity across heme indications; format: cell-based; details: mantle cell lymphoma, and DLBCL most sensitive
Protocol: as §1

[7] = test system: OCI-LY10 p53^WT ABC-subtype DLBCL xenograft; assay: OCI-LY10 DLBCL xenograft model; format: in vivo
[8] = test system: TMD8 p53^MUT ABC-subtype DLBCL xenograft; assay: TMD8 DLBCL xenograft model; format: in vivo
[9] = test system: panel of solid and hematological tumor cell lines; assay: Cell growth inhibition across a tumor cell line panel; format: cell-based
Protocol: as §1

Question: Which IC50 [1] does the source give for `COc1ncc(-c2nc3c(n2C(C)C)[C@H](c2ccc(Cl)cc2)N(c2cc(Cl)cn(C)c2=O)C3=O)c(OC)n1` [HDM201] here?
Answer: The IC50 was 163 nM.

Question: `COc1cc(C(=O)O)ccc1NC(=O)[C@@H]1N[C@@H](CC(C)(C)C)[C@](C#N)(c2ccc(Cl)cc2F)[C@H]1c1cccc(Cl)c1F` [RG7388] was tested. Which IC50 [1] did it give?
Answer: The IC50 was 220 nM.

Question: What does the source list for `Cn1c(=O)n(C2CCC(=O)NC2=O)c2ccc(C3CCN(C(=O)[C@H]4CC[C@H](NC(=O)[C@@H]5NC6(CCCCC6)[C@@]6(C(=O)Nc7cc(Cl)ccc76)[C@H]5c5cccc(Cl)c5F)CC4)CC3)cc21` (stereo partly drawn) [Compound A, (3′R,4'S,5′R)-6″-chloro-4′-(3-chloro-2-fluorophenyl)-N-((1R,4R)-4-(4-(1-(2,6-dioxopiperidin-3-yl)-3-methyl-2-oxo-2,3-dihydro-1H-benzo[d]imidazol-5-yl)piperidine-1-carbonyl)cyclohexyl)-2″-oxodispiro[cyclohexane-1,2′-pyrrolidine-3′,3″-indoline]-5′-carboxamide]?
Answer: degradation of MDM2 ([2]; 4 h treatment): rapid and potent degradation of MDM2; degrades MDM2 at ([2]; FIG. 1, HiBiT-tagged MDM2, 4 h treatment): 0.4 nM; stabilization of p53 (p53): strong stabilization of p53; IC50 [1]: 0.3 nM; cancer cell growth inhibition ([1]; RS4;11, 24 h continuous treatment, compared with SMI): potently inhibits cancer cell growth; induction of apoptosis (Caspase activity) [3]: sufficient to potently induce apoptosis; anti-tumor activity (RS4;11 tumor): sustained tumor regression; time of peak of protein marker upregulation post-dose (p53, p21, and PUMA): 6 h; upregulation of protein markers p53, p21, and PUMA in tumor xenografts (p53, p21, and PUMA; relative to vehicle treated xenografts): marked upregulation; survival (disseminated AML model): significantly prolonged the survival; response in CTG-2227 AML PDX model [4]: tumor regression; response in CTG-2240 AML PDX model (CTG-2240 AML PDX): partial responses; response in CTG-2700 AML PDX model (CTG-2700 AML PDX): partial responses; hCD45+ cells in bone marrow and AML blasts [5]: significantly reduces; induction of apoptosis and cell killing in combination (MOLM-13 cell line): enhances induction of apoptosis and cell killing; anti-tumor activity in MOLM-13 xenograft model (MOLM-13 xenograft; single dose in combination with daily dosing of venetoclax): sustained tumor regression; in vitro activity across heme indications [6]: active across multiple heme indications; activity in OCI-LY10 xenograft model [7]: highly active; activity in TMD8 xenograft model [8]: not; stronger cell growth inhibition, compared to SMIs [9]: > 200 fold

Question: With `Nc1ccn([C@@H]2O[C@H](CO)[C@@H](O)[C@@H]2O)c(=O)n1` [cytarabine] as the molecule, how does the “anti-tumor activity in MOLM-13 xenograft model” value (MOLM-13 xenograft; combination of cytarabine and venetoclax) read?
Answer: Its value is “no significant anti-tumor activity”.

Question: What about the “anti-tumor activity in MOLM-13 xenograft model” value (MOLM-13 xenograft; cytarabine alone) of the same molecule?
Answer: The value was “no significant anti-tumor activity”.

Question: `CC1(C)CCC2(CC1)N[C@@H](C(=O)N[C@@H]1CC[C@@H](C(N)=O)OC1)[C@H](c1ccnc(Cl)c1F)[C@]21C(=O)Nc2cc(Cl)ccc21` [DS-3032] was tested. Which IC50 [1] did it give?
Answer: Its IC50 is 67 nM.

Question: `CC(C)[C@@H](CS(=O)(=O)C(C)C)N1C(=O)[C@@](C)(CC(=O)O)C[C@H](c2cccc(Cl)c2)[C@H]1c1ccc(Cl)cc1` [AMG-232] was tested. Which IC50 [1] did it give?
Answer: The IC50 was 280 nM.

Question: For `CC(C)(C)C[C@@H]1N[C@@H](C(=O)N[C@H]2CC[C@H](O)CC2)[C@H](c2cccc(Cl)c2F)[C@]12C(=O)Nc1cc(Cl)ccc12` [SAR405838], which IC50 [1] is on record?
Answer: The IC50 was 620 nM.
